Patent US20090270359A1, “SUBSTITUTED PYRAZOLE DERIVATIVES” (TAKEDA PHARMACEUTICAL COMPANY LIMITED, priority 2007, published 2009)
Numbering of substitutions follows the chain as printed.

Legend:
mutant AR (W741C) = molecular target: T1, mutant AR (W741C) (Homo sapiens, UniProt P10275, W742C); assay: AR transcription inhibition test (luciferase reporter in Cos-7 cells); format: cell-based; settings: compound 1 μM, 0.1 μM DHT, luciferase activity after 24 hr, relative to control (0.1 μM DHT), read-out: Inhibitory rate (%) of mutant AR at 1 μM
T1 construct: expressed in transfected cells; host or cells: Cos-7
T1 sequence (P10275 1-920 W742C): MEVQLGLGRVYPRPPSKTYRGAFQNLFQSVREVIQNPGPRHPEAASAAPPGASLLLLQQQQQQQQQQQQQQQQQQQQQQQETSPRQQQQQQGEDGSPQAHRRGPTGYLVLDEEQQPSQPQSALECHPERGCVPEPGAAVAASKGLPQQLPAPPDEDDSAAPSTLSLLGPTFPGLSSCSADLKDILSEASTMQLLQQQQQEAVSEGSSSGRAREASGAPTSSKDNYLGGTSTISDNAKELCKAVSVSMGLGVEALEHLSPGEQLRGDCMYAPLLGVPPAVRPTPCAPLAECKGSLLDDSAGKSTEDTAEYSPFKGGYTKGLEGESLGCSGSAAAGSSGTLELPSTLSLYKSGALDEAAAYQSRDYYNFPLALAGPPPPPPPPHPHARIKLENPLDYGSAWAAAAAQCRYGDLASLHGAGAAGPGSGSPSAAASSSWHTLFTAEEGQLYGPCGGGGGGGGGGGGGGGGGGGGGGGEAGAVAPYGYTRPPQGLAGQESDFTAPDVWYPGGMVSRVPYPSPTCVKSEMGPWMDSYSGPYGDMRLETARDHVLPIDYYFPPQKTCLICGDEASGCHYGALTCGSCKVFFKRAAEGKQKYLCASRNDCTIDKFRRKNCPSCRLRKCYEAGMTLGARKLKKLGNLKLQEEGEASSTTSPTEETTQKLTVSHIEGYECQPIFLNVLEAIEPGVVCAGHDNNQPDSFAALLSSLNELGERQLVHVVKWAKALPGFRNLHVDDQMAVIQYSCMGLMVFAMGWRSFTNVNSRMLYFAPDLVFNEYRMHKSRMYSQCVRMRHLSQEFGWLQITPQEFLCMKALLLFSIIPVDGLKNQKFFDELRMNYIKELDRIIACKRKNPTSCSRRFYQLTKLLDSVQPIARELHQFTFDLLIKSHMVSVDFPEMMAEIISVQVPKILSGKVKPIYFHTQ
Experimental: Cos-7 cells (5,000,000 cells) were inoculated to a flask, and incubated in a culture medium (DMEM+10% Dextran Charcoal (DCC)−Fetal Bovine Serum (FBS) and 2 mM glutamine) for 24 hours. Then, a vector DNA harboring mutant AR (W741C) and a vector DNA containing a luciferase gene bound at the downstream of an androgen responsive promoter were cotransfected by a liposome method. After 4 hr, the medium was changed and, after culture for 3 hr, DHT (dihydrotestosterone) at the final concentration of 0.1 μM and the compound at the final concentration of 1 μM were added. After further culture for 24 hr, the luciferase activity was measured, and the AR transcription inhibitory activity of the compound was examined.

[1] = molecular target: T2, LNCaP type mutant androgen receptor (AR) (Homo sapiens, UniProt P10275, T878A); assay: AR-binding inhibition test, LNCaP type (radio-labeled Mibolerone displacement); settings: compound 1 μM; 3 nM radio-labeled Mibolerone; 4° C., 3 hours; dextran/charcoal method; read-out: Inhibitory rate (%) at 1 μM, LNCaP type
T2 sequence (P10275 1-920 T878A): T1 sequence (P10275 1-920 W742C) with C742W, T878A
Experimental: (§1) To a solution of wild type or LNCaP type mutant androgen receptor (AR) was added 3 nM radio-labeled Mibolerone and final concentration 1 μM of the compound. The mixture was incubated at 4° C. for 3 hours, and B (Bound) and F (Free) Mibolerones were separated by the dextran/charcoal method. The label count of B was measured and the inhibition rate of the compound was calculated.

[2] = molecular target: T3, wild type androgen receptor (AR) (Homo sapiens, UniProt P10275); assay: AR-binding inhibition test, wild type (radio-labeled Mibolerone displacement); settings: compound 1 μM; 3 nM radio-labeled Mibolerone; 4° C., 3 hours; dextran/charcoal method; read-out: Inhibitory rate (%) at 1 μM, wild type
T3 sequence (P10275 1-920): T1 sequence (P10275 1-920 W742C) with C742W
Experimental: as §1

[3] = system: Human prostate cancer cells LNCaP-FGC; assay: Prostate specific antigen (PSA) production inhibition test in prostate cancer cells; format: cell-based; settings: Homo sapiens, 72 h; compound 1 μM; testosterone 0.1 ng/m; PSA in culture supernatant after 3 days by ELISA; testosterone non-addition group 100%, addition group 0%; read-out: Inhibitory rate (%) at 1 μM (PSA production suppression rate)
Experimental: Human prostate cancer cells LNCaP-FGC were plated in a 24 well plate at 40000 cells/1000 μL/well, and testosterone (final concentration 0.1 ng/m) and the compound (1 μM) were added the next day. The concentration of PSA in the culture supernatant after 3 days from the addition was measured by ELISA, and the PSA production suppression rate was calculated with the testosterone non-addition group as 100% and the testosterone addition group as 0%.

Structure (SMILES): Cc1nn(Cc2ccc(C(N)=O)cc2)c(C)c1-c1ccc(C#N)c(Cl)c1F [Example 337, 4-{[4-(3-chloro-4-cyano-2-fluorophenyl)-3,5-dimethyl-1H-pyrazol-1-yl]methyl}benzamide]
- inhibition at 1 µM (mutant AR (W741C)): 36%
- inhibition at 1 µM [1]: 72%
- inhibition at 1 µM [2]: 71%
- inhibition at 1 µM [3]: 104%
